Measurements reported in paper doi:10.1101/2021.04.08.439011v1 (biorxiv, 2021).
Where two headings read alike, the source gives them in different places.

Key:
ACVR1B = ACVR1B (Homo sapiens, UniProt P36896); details: 1 µM; binder
CAMK1D = CAMK1D (Homo sapiens, UniProt Q8IU85); details: 1 µM; binder
CAMK2A = CAMK2A (Homo sapiens, UniProt Q9UQM7); details: 1 µM; binder
CASK = CASK (Homo sapiens, UniProt O14936); details: 1 µM; binder
CDK4-cyclinD1 = CDK4-cyclinD1 (Homo sapiens, UniProt P11802); details: 1 µM; binder
EGFR(S752-I759del) = EGFR(S752-I759del) (Homo sapiens, UniProt P00533, DEL752-759); details: 1 µM; binder
FES = FES (Homo sapiens, UniProt P07332); details: 1 µM; binder
FGFR1 = FGFR1 (Homo sapiens, UniProt P11362); details: 1 µM; binder
FGFR3 = FGFR3 (Homo sapiens, UniProt P22607); details: 1 µM; binder
FLT4 = FLT4 (Homo sapiens, UniProt P35916); details: 1 µM; binder
HUNK = HUNK (Homo sapiens, UniProt P57058); details: 1 µM; binder
LRRK2(G2019S) = LRRK2(G2019S) (Homo sapiens, UniProt Q5S007, G2019S); details: 1 µM; binder
MAP3K4 = MAP3K4 (Homo sapiens, UniProt Q9Y6R4); details: 1 µM; binder
MEK3 = MEK3 (Homo sapiens, UniProt P46734); details: 1 µM; binder
MRCKB = MRCKB (Homo sapiens, UniProt Q9Y5S2); details: 1 µM; binder
MTOR = MTOR (Homo sapiens, UniProt P42345); details: 1 µM; binder
PCTK2 = PCTK2 (Homo sapiens, UniProt Q00537); details: 1 µM; binder
PDGFRA = PDGFRA (Homo sapiens, UniProt P16234); details: 1 µM; binder
PFTK1 = PFTK1 (Homo sapiens, UniProt O94921); details: 1 µM; binder
RPS6KA1 = RPS6KA1 (Homo sapiens, UniProt Q15418); details: binder
SRC = SRC (Homo sapiens, UniProt P12931); details: 1 µM; binder
SRPK3 = SRPK3 (Homo sapiens, UniProt Q9UPE1); details: 1 µM; binder
STK35 = STK35 (Homo sapiens, UniProt Q8TDR2); details: 1 µM; binder
TAOK1 = TAOK1 (Homo sapiens, UniProt Q7L7X3); details: 1 µM; binder
TEC = TEC (Homo sapiens, UniProt P42680); details: 1 µM; binder
TLK1 = TLK1 (Homo sapiens, UniProt Q9UKI8); details: 1 µM; binder
TNK1 = TNK1 (Homo sapiens, UniProt Q13470); details: 1 µM; binder
VPS34 = VPS34 (Homo sapiens, UniProt Q8NEB9); details: 1 µM; binder
YANK3 = YANK3 (Homo sapiens, UniProt Q86UX6); details: 1 µM; binder
p38-delta = p38-delta (Homo sapiens, UniProt O15264); details: 1 µM; binder

Chain of RPS6KA1 (Q15418 whole entry): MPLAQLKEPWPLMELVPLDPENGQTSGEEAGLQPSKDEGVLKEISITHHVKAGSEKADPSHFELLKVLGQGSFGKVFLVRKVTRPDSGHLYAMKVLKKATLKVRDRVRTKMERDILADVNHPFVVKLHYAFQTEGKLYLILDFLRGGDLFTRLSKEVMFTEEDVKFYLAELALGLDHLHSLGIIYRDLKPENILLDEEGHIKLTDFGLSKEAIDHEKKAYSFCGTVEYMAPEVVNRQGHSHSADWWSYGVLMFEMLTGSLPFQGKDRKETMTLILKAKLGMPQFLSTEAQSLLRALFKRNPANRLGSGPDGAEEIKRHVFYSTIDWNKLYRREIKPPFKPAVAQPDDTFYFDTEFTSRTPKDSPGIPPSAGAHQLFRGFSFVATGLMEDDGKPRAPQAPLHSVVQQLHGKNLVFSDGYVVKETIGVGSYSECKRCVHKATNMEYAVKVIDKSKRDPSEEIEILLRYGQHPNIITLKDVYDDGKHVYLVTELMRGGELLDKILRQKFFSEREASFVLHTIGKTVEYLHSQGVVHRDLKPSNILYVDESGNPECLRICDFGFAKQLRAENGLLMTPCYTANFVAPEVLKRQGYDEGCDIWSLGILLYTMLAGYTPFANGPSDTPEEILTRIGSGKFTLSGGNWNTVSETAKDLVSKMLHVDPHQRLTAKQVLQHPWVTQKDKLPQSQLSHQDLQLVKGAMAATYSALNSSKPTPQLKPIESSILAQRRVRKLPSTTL
Chain of SRPK3 (Q9UPE1 whole entry): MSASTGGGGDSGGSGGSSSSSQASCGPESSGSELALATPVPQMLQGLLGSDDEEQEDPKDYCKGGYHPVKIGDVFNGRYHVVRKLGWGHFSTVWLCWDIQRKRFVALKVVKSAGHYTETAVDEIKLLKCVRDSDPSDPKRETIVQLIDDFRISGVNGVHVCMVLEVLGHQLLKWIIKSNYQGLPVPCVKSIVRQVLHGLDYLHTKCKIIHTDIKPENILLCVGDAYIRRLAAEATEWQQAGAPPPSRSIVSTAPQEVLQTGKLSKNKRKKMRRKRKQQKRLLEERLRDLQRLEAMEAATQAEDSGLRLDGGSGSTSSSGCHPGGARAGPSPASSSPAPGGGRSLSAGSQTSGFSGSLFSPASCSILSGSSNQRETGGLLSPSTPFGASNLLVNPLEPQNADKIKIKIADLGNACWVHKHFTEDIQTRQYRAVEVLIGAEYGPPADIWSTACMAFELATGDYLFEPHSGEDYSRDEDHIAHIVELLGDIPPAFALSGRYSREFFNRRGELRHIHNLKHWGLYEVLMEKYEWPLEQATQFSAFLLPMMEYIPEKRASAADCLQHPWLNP
Chain of LRRK2(G2019S) (Q5S007 whole entry G2019S): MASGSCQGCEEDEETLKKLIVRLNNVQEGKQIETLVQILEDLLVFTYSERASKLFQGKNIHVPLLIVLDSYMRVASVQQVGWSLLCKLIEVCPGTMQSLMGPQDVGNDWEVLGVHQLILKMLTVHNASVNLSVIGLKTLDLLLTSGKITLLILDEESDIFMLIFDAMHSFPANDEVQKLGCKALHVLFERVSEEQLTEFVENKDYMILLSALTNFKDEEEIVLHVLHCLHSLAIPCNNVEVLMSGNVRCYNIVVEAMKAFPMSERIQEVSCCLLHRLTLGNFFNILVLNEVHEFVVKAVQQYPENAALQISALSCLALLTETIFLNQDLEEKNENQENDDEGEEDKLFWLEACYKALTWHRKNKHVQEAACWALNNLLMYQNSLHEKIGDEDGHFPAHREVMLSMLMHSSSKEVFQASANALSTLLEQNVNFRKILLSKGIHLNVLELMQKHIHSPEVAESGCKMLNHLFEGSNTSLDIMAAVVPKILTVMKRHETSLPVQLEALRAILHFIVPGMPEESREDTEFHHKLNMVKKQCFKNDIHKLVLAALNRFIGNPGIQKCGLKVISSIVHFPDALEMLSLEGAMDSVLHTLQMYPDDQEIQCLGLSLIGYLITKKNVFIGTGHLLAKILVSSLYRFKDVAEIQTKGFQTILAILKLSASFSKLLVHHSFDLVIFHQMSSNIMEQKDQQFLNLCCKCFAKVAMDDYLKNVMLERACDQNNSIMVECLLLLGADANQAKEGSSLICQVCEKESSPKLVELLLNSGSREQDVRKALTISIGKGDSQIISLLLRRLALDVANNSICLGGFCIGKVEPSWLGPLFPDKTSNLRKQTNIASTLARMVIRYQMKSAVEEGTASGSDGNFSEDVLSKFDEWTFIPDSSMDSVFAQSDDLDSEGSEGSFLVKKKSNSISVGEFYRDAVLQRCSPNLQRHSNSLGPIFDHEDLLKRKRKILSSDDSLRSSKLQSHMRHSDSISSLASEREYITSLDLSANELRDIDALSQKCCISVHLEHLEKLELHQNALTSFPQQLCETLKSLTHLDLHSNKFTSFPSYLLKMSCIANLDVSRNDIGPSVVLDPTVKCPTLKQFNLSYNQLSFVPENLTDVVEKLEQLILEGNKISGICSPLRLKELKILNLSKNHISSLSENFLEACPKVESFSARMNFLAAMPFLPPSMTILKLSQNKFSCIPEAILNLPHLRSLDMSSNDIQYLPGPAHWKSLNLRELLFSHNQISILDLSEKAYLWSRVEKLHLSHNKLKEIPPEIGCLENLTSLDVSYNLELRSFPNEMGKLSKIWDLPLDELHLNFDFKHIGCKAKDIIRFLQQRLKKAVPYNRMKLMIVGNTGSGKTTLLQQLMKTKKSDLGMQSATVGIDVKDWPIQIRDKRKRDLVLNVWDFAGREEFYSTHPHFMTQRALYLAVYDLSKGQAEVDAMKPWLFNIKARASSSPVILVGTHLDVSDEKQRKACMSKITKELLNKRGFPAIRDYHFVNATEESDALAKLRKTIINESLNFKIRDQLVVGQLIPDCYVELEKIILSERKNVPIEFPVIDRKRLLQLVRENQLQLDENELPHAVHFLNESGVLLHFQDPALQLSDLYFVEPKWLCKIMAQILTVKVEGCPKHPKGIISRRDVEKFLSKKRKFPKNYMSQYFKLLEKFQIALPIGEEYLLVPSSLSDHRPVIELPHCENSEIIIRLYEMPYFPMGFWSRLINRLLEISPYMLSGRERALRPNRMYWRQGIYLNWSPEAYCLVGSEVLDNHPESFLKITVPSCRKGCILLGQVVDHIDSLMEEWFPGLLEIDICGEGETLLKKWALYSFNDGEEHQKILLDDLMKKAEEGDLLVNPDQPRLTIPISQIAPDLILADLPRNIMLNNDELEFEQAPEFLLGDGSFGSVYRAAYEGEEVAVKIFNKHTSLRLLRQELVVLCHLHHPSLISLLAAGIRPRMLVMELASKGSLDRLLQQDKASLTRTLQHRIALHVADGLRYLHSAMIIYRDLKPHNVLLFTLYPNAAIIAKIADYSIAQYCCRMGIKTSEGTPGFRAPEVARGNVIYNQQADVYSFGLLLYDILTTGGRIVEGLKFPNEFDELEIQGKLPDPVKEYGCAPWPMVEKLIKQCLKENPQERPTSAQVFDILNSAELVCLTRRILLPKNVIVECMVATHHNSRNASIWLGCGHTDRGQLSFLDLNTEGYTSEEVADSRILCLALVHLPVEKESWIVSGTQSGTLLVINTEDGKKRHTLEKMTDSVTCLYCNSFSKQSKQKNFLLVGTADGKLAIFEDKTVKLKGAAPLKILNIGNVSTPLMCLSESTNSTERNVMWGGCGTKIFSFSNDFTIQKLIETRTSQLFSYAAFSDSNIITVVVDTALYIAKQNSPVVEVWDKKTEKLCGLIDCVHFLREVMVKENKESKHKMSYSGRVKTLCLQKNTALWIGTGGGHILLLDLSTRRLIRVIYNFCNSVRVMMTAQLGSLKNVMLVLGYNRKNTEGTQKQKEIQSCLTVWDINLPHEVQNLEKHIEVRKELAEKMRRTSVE
Chain of CAMK2A (Q9UQM7 whole entry): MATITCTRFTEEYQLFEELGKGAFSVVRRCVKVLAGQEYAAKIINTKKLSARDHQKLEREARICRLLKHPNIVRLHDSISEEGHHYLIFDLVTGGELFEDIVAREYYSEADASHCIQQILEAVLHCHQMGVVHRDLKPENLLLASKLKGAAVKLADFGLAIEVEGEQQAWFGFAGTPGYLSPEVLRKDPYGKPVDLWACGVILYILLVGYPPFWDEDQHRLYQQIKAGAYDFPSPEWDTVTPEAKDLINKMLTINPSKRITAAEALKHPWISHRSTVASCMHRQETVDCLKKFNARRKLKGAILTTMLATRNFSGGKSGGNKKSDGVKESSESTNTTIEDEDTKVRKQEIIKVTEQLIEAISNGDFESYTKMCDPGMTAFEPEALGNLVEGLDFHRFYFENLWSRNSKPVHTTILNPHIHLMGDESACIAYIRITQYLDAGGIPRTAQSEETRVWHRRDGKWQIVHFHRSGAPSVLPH
Chain of FES (P07332 whole entry): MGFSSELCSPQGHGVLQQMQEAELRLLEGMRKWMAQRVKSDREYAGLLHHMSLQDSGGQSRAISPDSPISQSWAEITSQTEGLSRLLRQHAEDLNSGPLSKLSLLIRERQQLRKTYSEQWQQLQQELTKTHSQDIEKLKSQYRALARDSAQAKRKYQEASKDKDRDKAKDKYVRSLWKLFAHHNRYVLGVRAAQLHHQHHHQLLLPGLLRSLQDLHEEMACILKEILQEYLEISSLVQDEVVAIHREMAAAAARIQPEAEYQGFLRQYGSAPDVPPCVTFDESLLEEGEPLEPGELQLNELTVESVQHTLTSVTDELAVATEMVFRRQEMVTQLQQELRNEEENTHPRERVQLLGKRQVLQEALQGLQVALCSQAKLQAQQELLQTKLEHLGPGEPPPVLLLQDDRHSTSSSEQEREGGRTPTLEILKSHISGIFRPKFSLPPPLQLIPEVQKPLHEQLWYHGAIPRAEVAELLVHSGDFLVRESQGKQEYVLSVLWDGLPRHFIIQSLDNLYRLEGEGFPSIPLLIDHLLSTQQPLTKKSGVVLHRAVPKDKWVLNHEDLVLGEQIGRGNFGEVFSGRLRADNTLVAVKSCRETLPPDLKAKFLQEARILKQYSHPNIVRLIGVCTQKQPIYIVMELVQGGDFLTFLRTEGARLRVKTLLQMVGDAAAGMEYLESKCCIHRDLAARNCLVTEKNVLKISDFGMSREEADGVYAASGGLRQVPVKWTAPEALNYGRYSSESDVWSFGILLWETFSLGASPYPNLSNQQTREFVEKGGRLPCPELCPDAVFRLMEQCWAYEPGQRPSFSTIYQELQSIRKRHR

CNc1ncc2cc(-c3ccc(-c4cccc(C)n4)cc3Cl)c(=O)n(C[C@H]3OC[C@H](N)CO3)c2n1 [compound 6, G-5555]
Percent Control (ACVR1B): 96%
Percent Control (CAMK1D): 2.5%
Percent Control (CAMK2A): 88%
Percent Control (CASK): 100%
Percent Control (CDK4-cyclinD1): 99%
Percent Control (EGFR(S752-I759del)): 100%
Percent Control (FES): 84%
Percent Control (FGFR1): 100%
Percent Control (FGFR3): 100%
Percent Control (FLT4): 100%
Percent Control (HUNK): 100%
Percent Control (LRRK2(G2019S)): 100%
Percent Control (MAP3K4): 52%
Percent Control (MEK3): 29%
Percent Control (MRCKB): 5.3%
Percent Control (MTOR): 83%
Percent Control (PCTK2): 100%
Percent Control (PDGFRA): 96%
Percent Control (PFTK1): 100%
Percent Control (RPS6KA1; Kin.Dom.1 N-terminal): 69%
Percent Control (RPS6KA1; Kin.Dom.2 C-terminal, 1 µM): 81%
Percent Control (SRC): 100%
Percent Control (SRPK3): 100%
Percent Control (STK35): 100%
Percent Control (TAOK1): 87%
Percent Control (TEC): 100%
Percent Control (TLK1): 100%
Percent Control (TNK1): 100%
Percent Control (VPS34): 100%
Percent Control (YANK3): 79%
Percent Control (p38-delta): 100%
